In patent US20260200965A1, “NOVEL COMPOUND DERIVED FROM LORANTHUS TANAKAE AND ANTICANCER USE THEREOF” (KOREA INSTITUTE OF ORIENTAL MEDICINE, priority 2022, published 2026):
Several values for one entry are separate records, joined by “and”; a condition that tells them apart may be missing. Identical values can stand only once.

What was measured:
[1] = test system: NHDF (normal human dermal fibroblast) cells; assay: Toxicity test in normal cells (WST-8); type: cell-based
Method: NHDF (normal human dermal fibroblast; ATCC, USA) cells were seeded at about 5,000 cells per well in a 96-well plate and stabilized for 24 hours, and then treated with Lotanoside B isolated in Example 2 at various concentrations (0, 6.25, 12.5, 25, or 50 μM). As a control group, 5-FU (anticancer drug) and kaempferol were treated at various concentrations (5-FU: 0, 1.25, 2.5, 5 or 10 μM; kaempferol: 0, 5, 10, 20 or 40 μM). After culturing in a CO2 incubator for 48 hours, WST-8 ((2-(2-methoxy-4-nitrophenyl)-3-(4-nitrophenyl)-5-(2,4-disulfophenyl)-2H-tetrazolium, monosodium salt) reagent was treated, and after culturing for 2 hours, the optical density (OD) was measured at a wavelength of 450 nm by using a microplate reader.

[2] = test system: mouse skin epithelial cell JB6; assay: TPA-induced cell transformation colony growth inhibition (soft agar); type: cell-based; conditions: TPA 10 ng/ml, JB6 colonies, about 2 weeks
Method: (§1) The carcinogenicity inhibitory effect of the extract of Loranthus tanakae Franch. & Sav was determined in a carcinogenic model in which the mouse skin epithelial cell JB6 (ATCC, USA) was treated with EGF, which is a growth factor that increases cancer cell occurrence, and TPA, which is a tumor-promoting factor, to induce malignant transformation.
(§2) Specifically, agar mix (0.5%) including BME, FBS, glutamine, gentamicin, PBS and 1.25% agar, EGF (10 ng/ml) or TPA (10 ng/ml) and the 70% ethanol extract of Loranthus tanakae Franch. & Sav prepared in Example 1-1 were mixed, dispensed into 6-well plates at 3 mL per well, and solidified (bottom agar). Mouse skin epithelial cells JB6 (ATCC, USA) were detached by trypsin treatment, washed with 1×PBS, and resuspended in 10% BME to determine the cell number. 8,000 cells were prepared per well, and agar mix (0.3%), EGF or TPA and the 70% ethanol extract of Loranthus tanakae Franch. & Sav prepared in Example 1-1 were mixed, dispensed into 1 mL per well, and solidified (upper agar). After culturing in a CO2 incubator for about 2 weeks, colonies were photographed under a microscope, and the number of colonies was counted by using Image-Pro Plus software (v.6.0) program (Media Cybernetics, Silver Spring, MD, USA).

[3] = test system: SKMEL-5 melanoma cancer cells; assay: Cancer cell growth inhibition (WST-8 assay); type: cell-based
Method: SKMEL-5 melanoma cancer cells (ATCC, USA) were dispensed into a 96-well plate at 1,000 cells per well and stabilized for 24 hours, and then treated with Lotanoside B at different concentrations (0, 6.25, 12.5, 25 or 50 μM). As a control group, 5-FU (anticancer drug) and kaempferol were treated at different concentrations, respectively (5-FU: 0, 1.25, 2.5, 5 or 10 μM; kaempferol: 0, 5, 10, 20 or 40 μM). Afterwards, the cells were cultured in a CO2 incubator for 72 hours, and then treated with WST-8 ((2-(2-methoxy-4-nitrophenyl)-3-(4-nitrophenyl)-5-(2,4-disulfophenyl)-2H-tetrazolium, monosodium salt) reagent, and after culturing for about 2 hours, the optical density (OD) was measured at a wavelength of 450 nm by using a microplate reader.

[4] = test system: mouse skin epithelial cell JB6; assay: EGF-induced cell transformation colony growth inhibition (soft agar); type: cell-based; conditions: EGF 10 ng/ml, JB6 colonies, about 2 weeks
Method: as §1, §2

[5] = test system: DMBA/TPA-induced skin cancer; type: in vivo, ICR mice
Method: Female ICR mice (5 weeks old, 20~25 g) were purchased as experimental animals from Samtaco Co., Ltd. (Osan, Korea), and were provided with water and food freely in a cage equipped with a constant temperature and humidity device. After a one-week adaptation period, the hair on the back of the mice was removed, and they were divided into six groups as shown in Table 1 and raised for 20 weeks.
When DMBA (7,12-Dimethylbenz[a]anthracene), which induces carcinogenesis, is treated to the depilated area and TPA (12-Otetradecanoylphorbol-13-acetate, promoter) is continuously applied, skin inflammation and skin cancer are induced. […] TPA, Lotanoside B and 5-FU were diluted in acetone and topically treated to the back area twice a week, and the number and size of the tumors formed and the weight of the mice were measured.

[6] = 0.1 and 1 μmole topical twice a week, 20 weeks, vs DMBA/TPA group, reduction greater at 1 μmole

O=c1[nH]cc(F)c(=O)[nH]1 [5-FU, fluorouracil]
concentration at which toxicity begins to show ([1]; human, 48 h): 10 µM

COc1cc(O)c2c(=O)c(OC3OC(C)C(O)C(O)C3O)c(-c3ccc(OC4OC(COC(=O)/C=C/c5ccccc5)C(O)C(O)C4O)c(O)c3)oc2c1 (stereo not drawn) [Lotanoside B, rhamnetin-3-O-rhamnoside-4′-O-(6″-O-cinnamoyl)-glucoside]
inhibition rate compared to the TPA treatment group ([2]; 50 μM): 76.2% | inhibition at 50 µM ([2]; Mus musculus, Epithelial cell, 336 h, 50 μM, read-out: inhibition rate compared to the TPA treatment group): 74.2% | IC50 ([3]; Homo sapiens, SK-MEL-5, SKMEL-5, 72 hours, WST-8): 32.1 µM | cancer cell growth inhibition effect compared to kaempferol ([3]; SKMEL-5, 72 hours, WST-8): superior cancer cell growth inhibition effect compared to kaempferol | cancer cell growth inhibition effect ([3]; SKMEL-5, at a concentration that did not exhibit toxicity): 78.5% | concentration at which toxicity begins to show ([1]; human, 48 h): > 50 µM | inhibition at 50 µM ([4]; Mus musculus, Epithelial cell, 336 h, 50 μM, read-out: inhibition rate compared to the EGF treatment group): 66.7% | number of tumors [5, 6]: decreased | tumor area [5, 6]: decreased | tumor incidence [5, 6]: decreased | effect in inhibiting skin cancer formation compared to 5-FU ([5]; 5-FU 0.1 μmole as positive control): superior effect in inhibiting skin cancer formation compared to 5-FU

COc1cc(O)c2c(=O)c(OC3OC(CO)C(O)C(O)C3O)c(-c3ccc(O)c(O)c3)oc2c1 (stereo not drawn) [rhamnetin-3-O-glucoside]
inhibition rate compared to the TPA treatment group ([2]; test concentration not given): 76.2% and 74.2% | inhibition rate compared to the EGF treatment group ([4]; test concentration not given): 92.9%

O=c1c(O)c(-c2ccc(O)cc2)oc2cc(O)cc(O)c12 [kaempferol]
concentration at which toxicity begins to show ([1]; NHDF, 48 hours, WST-8): 40 µM
